Like-named read-outs stand apart in the source and are kept apart here. Ends that are not written are not given here. Peptide text beside a SMILES is read from it.

Series [1] deals with P.aeruginosa. The following applies: cited from earlier work.
In series [2] the test system is Human erythrocytes. Put plainly: Hemolysis assay, human erythrocytes. In kind it is cell-based. Conditions: for Concentration of peptide to induce 50% haemolysis: red cells of human; for Hemolytic activity: at 100 µg/ml, 0.4% erythrocytes, 1 h. As to the method:
Human and rabbit erythrocytes were both used to test the hemolytic activities of the peptides. Whole blood was collected in heparinized sterile syringe, transferred to sterile borosilicate tube and centrifuged at 1200 g for 5 minutes at 4°C. The supernatant including the leukocytes above the erythrocyte pellet was discarded. The erythrocytes were washed 3 times using three volumes of pre-chilled pyrogen-free saline (PFS). An erythrocyte suspension at 0.4% was prepared for the hemolysis assay. Serial two-fold dilutions of the peptides was prepared in PFS and 100 µl aliquots were added to equal volumes of 0.4% erythrocyte solution in a 96-well microtiter plate (Nunclon™ Δ surface, Nunc) to give final peptide concentrations ranging from 6 to 100 µg/ml. The mixtures were incubated at 37°C for 1 h. The intact erythrocytes were then pelleted by centrifuging at 1000 g for 5 min. One hundred µl of the supernatant was transferred to a new 96-well microtiter plate and the amount of hemoglobin released into the supernatant was determined by reading the absorbance at 414nm using a SPECTRAmax™ 340 plate reader with SOFTmax PRO™ version 1.2.0. A positive control with 100 µl of 0.4% erythrocyte lysed in 1% Triton-X 100 was taken as 100% lysis. The negative control was the erythrocytes in PFS alone, which gave minimal lysis. This was taken as 0%.

The subject of series [3] is 30 clinical strains of P. aeruginosa. Put plainly: Microbicidal concentration (MBC) assay, 30 clinical strains. Format: cell-based. The following applies: for MBC50: concentration of peptide required to kill 50% of the strains. As to the method: Test strains cultured on Mueller-Hinton agar (MHA, Becton Dickinson, USA) were inoculated into 10 ml Mueller-Hinton broth (MHB, Becton Dickinson, USA) and grown overnight at 37°C in a shaker incubator (Model 4536, Forma Scientific, Inc., USA) at 230 rpm. Overnight broth cultures were diluted to give a final cell density of 10^5 colony forming units/ml (cfu/ml). One hundred microliters of the bacterial suspension was dispensed into sterile polypropylene 8-strip PCR-tubes (Quality Scientific Plastics, USA). Eleven microliters of serially diluted sushi peptides, ranging in final concentrations of 0.03-4 µg/ml, were then added. The peptides were constituted at 10 times the required test concentrations in 0.01% acetic acid and 0.2% bovine serum albumin (BSA). Positive controls were cultures without test peptides. Uninoculated MHB was used as negative control. All tests were carried out in triplicate.
Cultures were incubated at 37°C for 18-24 h, with the PCR-tubes held in horizontal position and shaken at 230 rpm. Cell counts were determined by standard drop-count method. The killing efficiency for the four sushi peptides were calculated based on standard drop-count method.

The test system of series [4] is P. aeruginosa ATCC 27853. Briefly: Killing rate assay. In kind it is cell-based. Conditions: 0.06 µg/ml, initial 10^9 cfu/ml; concentration achieving MBC90. An excerpt:
The killing rate assay was adapted from the MBC test above, with different contact time of peptides with the bacteria arrested at regular intervals and plated for colony count. An initial density of 10^9 cfu/ml was used. […] This is one of the important features of an effective therapeutic agent.

Series [5] in a line: Limulus Kinetic-QCL assay, inhibition of endotoxin-induced LAL reaction. Format: biochemical, E.coli 055:B5. The following applies: 200 EU/ml LPS, 1 h at 37 °C, 1000-fold dilution; read-out: 50% endotoxin-neutralizing concentration (ENC50). An excerpt: The Limulus Kinetic-QCL is a quantitative, kinetic assay for the detection of gram-negative bacterial endotoxin. This assay utilizes the initial part of LAL endotoxin reaction to activate an enzyme, which in turn releases p-nitroaniline from a synthetic substrate, producing a yellow color. The time required before the appearance of a yellow color is inversely proportional to the amount of endotoxin present. Throughout the assay, the absorbance at 405 nm of each well of the microplate was monitored. Using the initial absorbance reading of each well as its own blank, the time required for the absorbance to increase 0.200 absorbance units were calculated as Reaction Time.
Briefly, 25 µl of endotoxin solution (LPS, E.coli 055:B5) at 200 EU/ml was mixed with an equal volume of SSCrFCES at 1 µM, in a series of 2-fold dilutions in LAL reagent water in disposable endotoxin-free glass dilution tubes (BioWhittaker) and incubated at 37°C for one hour. […] The endotoxin activity was then quantified with Limulus Kinetic-QCL. […] The plate was then pre-incubated for > 10 minutes in a temperature-controlled ELISA plate reader. […] The absorbance at 405 nm of each well of the microtitre plate was monitored at time intervals of 5 minutes over a period of 2 hours. A 5 second automix was activated prior to reading. […]
The high sensitivity of the assay allowed for very low levels of endotoxin to be detected. […]

Series [6] in a line: LPS-induced lethality in galactosamine-sensitized mice. Format: in vivo, C57BL/6J mice. The following applies: for protection: 25 and 75 µg peptide; for decrease in LPS-induced lethality: 25 or 75 µg, pre-incubated with LPS 30 min prior to i.p. injection. The method, then: The anti-endotoxin potency of SSCrFCES was investigated in C57BL/6J mice. Mice are typically resistant to endotoxin. However, the sensitivity of mice to endotoxin can be enhanced > 1,000-fold by co-injection with a liver-specific inhibitor, galactosamine (31). In our study, intraperitoneal (i.p.) injection of 2.5 ng of E. coli 055:B5 LPS together with 15 mg of galactosamine hydrochloride in 0.2 ml of saline induced nearly 100% lethality in 18-25 g C57BL/6J mice within 7 hours. Various concentrations of SSCrFCES (1, 2, and 4 µM) and synthetic peptides (25 and 75 µg) were injected intravenously (i.v.) through tail vein 10 minutes after i.p. injection of the LPS-galactosamine mixture. Lethality was observed over 3 days after injection. Statistical analysis were performed using the Kaplan-Meier test (32) and log rank pairwise test.

A short description of series [7]: Hill's plot for interaction between synthetic peptides and lipid A. Format: binding.
The conditions of series [8]: ligand LPS S. minnesota Re595; read-out: Equilibrium constant; cited from earlier work.

Ranalexin: in series [1], the MBC50 is greater than 128 µg/mL.

For `CC[C@H](C)[C@H](NC(=O)[C@H](CCCNC(=N)N)NC(=O)[C@H](C)NC(=O)[C@H](CCSC)NC(=O)CNC(=O)[C@H](CCCCN)NC(=O)[C@H](CC(C)C)NC(=O)[C@H](CCCCN)NC(=O)[C@H](Cc1ccccc1)NC(=O)CN)C(=O)N[C@@H](CO)C(=O)N[C@@H](CS)C(=O)N[C@@H](CC(C)C)C(=O)N1CCC[C@H]1C(=O)N[C@@H](CC(N)=O)C(=O)NCC(=O)N[C@@H](CCC(N)=O)C(=O)N[C@@H](Cc1c[nH]c2ccccc12)C(=O)N[C@@H](CO)C(=O)N[C@@H](CC(N)=O)C(=O)N[C@@H](Cc1ccccc1)C(=O)N1CCC[C@H]1C(=O)N1CCC[C@H]1C(=O)N[C@@H](CCCCN)C(=O)N[C@@H](CS)C(=O)N[C@H](C(=O)N[C@@H](CCCNC(=N)N)C(=O)N[C@@H](CCC(=O)O)C(=O)N[C@@H](CS)C(=O)N[C@@H](C)C(=O)N[C@@H](CCSC)C(=O)N[C@H](C(=O)N[C@@H](CO)C(=O)N[C@@H](CO)C(=O)O)C(C)C)[C@@H](C)CC` [S1] (H-GFKLKGMARISCLPNGQWSNFPPKCIRECAMVSS-OH; N-terminus and C-terminus assumed), in series [2], the “Concentration of peptide to induce 50% haemolysis” value is 290 µg/mL. In series [3], the MBC90 is 8 nM and the MBC50 was no more than 0.03 µg/mL. Further, the “Killing rate (time to MBC90)” value in series [4] was found to be 7 min. The EC50 in series [5] was determined as 2250 nM. In series [6], the protection is 22-100% and the “decrease in LPS-induced lethality” value was 20-55%. Besides, the “Hill's plot co-operativity n” value in series [7] worked out at 2.42.

In the case of “HAEHKVKIKVKQKYGQFPQGTEVTYTCSGNYFLM [S3Δ]”, in series [2], the Hemolytic activity turned out to be 35% and the “Concentration of peptide to induce 50% haemolysis” value was 120 µg/mL. In series [2] (listed as SΔ3), this compound registered a Hemolytic activity of 35% at 100 µg/ml.

Take “Indolicin: cationic peptide (ILPWKWPWWPWRR; ends and bridges not checked; UniProt P33046 131-143, looked up)”: in series [1], the MBC50 was 64 µg/mL and the MBC90 was greater than 128 µg/mL.

As to `CC[C@H](C)[C@H](NC(=O)[C@H](CCCCN)NC(=O)[C@H](C)NC(=O)[C@H](CCCCN)NC(=O)CNC(=O)[C@H](CCCCN)NC(=O)[C@H](CC(C)C)NC(=O)[C@H](CCCCN)NC(=O)[C@H](Cc1ccccc1)NC(=O)CN)C(=O)N[C@@H](CO)C(=O)N[C@@H](CS)C(=O)N[C@@H](CC(C)C)C(=O)N1CCC[C@H]1C(=O)N[C@@H](CC(N)=O)C(=O)NCC(=O)N[C@@H](CCC(N)=O)C(=O)N[C@@H](Cc1c[nH]c2ccccc12)C(=O)N[C@@H](CO)C(=O)N[C@@H](CC(N)=O)C(=O)N[C@@H](Cc1ccccc1)C(=O)N1CCC[C@H]1C(=O)N1CCC[C@H]1C(=O)N[C@@H](CCCCN)C(=O)N[C@@H](CS)C(=O)N[C@H](C(=O)N[C@@H](CCCNC(=N)N)C(=O)N[C@@H](CCC(=O)O)C(=O)N[C@@H](CS)C(=O)N[C@@H](C)C(=O)N[C@@H](CCSC)C(=O)N[C@H](C(=O)N[C@@H](CO)C(=O)N[C@@H](CO)C(=O)O)C(C)C)[C@@H](C)CC` [S1Δ] (H-GFKLKGKAKISCLPNGQWSNFPPKCIRECAMVSS-OH; N-terminus and C-terminus assumed), the “Concentration of peptide to induce 50% haemolysis” value in series [2] was found to be 295 µg/mL. In series [3], this compound had an MBC90 of 16 nM and an MBC50 of no more than 0.03 µg/mL. This compound also yielded an MBC90 in series [3] (concentration of peptide required to kill 90% of the strains) of 0.06 µg/mL. Further, the “Killing rate (time to MBC90)” value in series [4] came out at 7 min. The EC50 in series [5] worked out at 875 nM. In series [6], the protection was 22-100% and the “decrease in LPS-induced lethality” value is 20-55%.

Take HAEHKVKIGVEQKYGQFPQGTEVTYTCSGNYFLM [S3]: in series [2], the “Concentration of peptide to induce 50% haemolysis” value stood at 160 µg/mL.

As to Nisin, in series [1], the MBC50 was 128 µg/mL.

Consider Magainin II, for which, in series [1], the MBC50 was 64 µg/mL.

As to “BPI pep85-99 (15 mer): 15 mer peptide of BPI (IKISGKWKAQKRFLK; UniProt P17213 116-130, looked up, fragment)”, in series [8], the Kd was 1760 nM.

The record behind these values is patent EP1224299B1, “RECOMBINANT PROTEINS AND PEPTIDES FOR ENDOTOXIN BIOSENSORS, ENDOTOXIN REMOVAL, AND ANTI-MICROBIAL AND ANTI-ENDOTOXIN THERAPEUTICS” (priority 1999, dated 2001).
